Values quoted from earlier work, collected in PMC11357446, “Searching for Novel HDAC6/Hsp90 Dual Inhibitors with Anti-Prostate Cancer Activity: In Silico Screening and In Vitro Evaluation” (Pharmaceuticals, 2024).

Legend:
[1] = target: Hsp90 (UniProt ID: P07900); set-up: method as in ChEMBL [62]; details: ChEMBL record on recombinant protein, ref ChEMBL [62], cited from earlier work; for IC50: read-out: Hsp90 IC50 (Standard Value)
[2] = target: HDAC6 (UniProt ID: Q9UBN7); set-up: method as in ChEMBL [62]; details: ChEMBL record on recombinant protein; ref ChEMBL [62]; read-out: HDAC6 IC50 (Standard Value); cited from earlier work

| Structure (SMILES) | IC50 [1] [nM] | IC50 [2] [nM] | Ki ([1]; read-out: Hsp90 Ki (Standard Value)) [nM] |
| --- | --- | --- | --- |
| CC(C)c1cc(-c2onc(C(=O)N[C@@H](C(=O)N3CC(F)(F)C3)C(C)C)c2-c2ccc(CN3CCOCC3)cc2)c(O)cc1O [CHEMBL4096929] | 39 | – | – |
| CC(C)c1cc(C(=O)N2Cc3ccc(NCc4ccc(C(=O)NO)cc4)cc3C2)c(O)cc1O [CHEMBL4782478] | 66 | 33.3 | – |
| CCNC(=O)c1noc(-c2cc(Cl)c(O)cc2O)c1-c1ccc(CN2CCOCC2)cc1C [CHEMBL4060353] | – | – | 32 |
